Reference: US8796284B2, “4-aminopyrimidine derivatives and their as as adenosine A2a receptor antagonists” (Palobiofarma, S.L., priority 2010, dated 2014)

molecular target: hA2a receptors (Homo sapiens (Human), UniProt P29274); assay: Adenosine A2a receptor subtype competition radioligand binding assay; settings: membranes from hA2a receptors transfected to HeLa cells, [3H]ZM241385 as radioligand, Cheng-Prusoff
Description: Pharmacological Activity Adenosine A2a Receptor Subtype Competition Radioligand Binding Assay
Human membranes from recombinant adenosine receptors were purchased from Receptor Biology, Inc. (USA)
Competition assays were carried out by incubation of membranes from hA2a receptors transfected to HeLa cells, [^3H]ZM241385 as radioligand, buffer (50 mM Tris-HCl (pH=7.4), 10 mM MgCl2, 1 mM EDTA, 2 units/ml adenosine deaminase), and unlabelled ligand in a total volume of 0.2 ml for 30 min at 25° C. NECA was used to determinate non-specific binding. Filter over Schleicher&Schuell GF/52 filters (pre-soaked 0.5% polyethylenimine) in a Brandel cell harvester. Unbound radioligand was removed with 3×250 μl ice-cold 50 mM Tris-HCl (pH=7.4), 10 mM MgCl and 1 mM EDTA.
(§1) Concentration-response binding competition curves were carried out by assaying 6 different concentrations (range between 10 nm to 100 μM). […] IC50 values were obtained by fitting the data with non-linear regression, with Prism 2.1 software (GraphPad, San Diego, Calif.). Cyclic Adenosine Monophosphate Production Measurement.

Sequence of hA2a receptors (P29274 whole entry): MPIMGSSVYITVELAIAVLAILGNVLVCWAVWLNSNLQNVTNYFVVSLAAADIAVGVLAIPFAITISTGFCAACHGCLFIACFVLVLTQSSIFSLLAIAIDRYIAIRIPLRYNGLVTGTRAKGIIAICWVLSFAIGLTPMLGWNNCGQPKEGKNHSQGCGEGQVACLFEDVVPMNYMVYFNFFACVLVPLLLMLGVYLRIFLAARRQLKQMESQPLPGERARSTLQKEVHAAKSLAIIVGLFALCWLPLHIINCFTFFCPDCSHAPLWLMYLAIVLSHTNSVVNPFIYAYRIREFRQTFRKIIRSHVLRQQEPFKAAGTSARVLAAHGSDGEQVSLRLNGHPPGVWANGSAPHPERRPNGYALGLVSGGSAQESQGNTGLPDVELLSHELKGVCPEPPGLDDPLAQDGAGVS

SMILES	Ki [nM]
CN(C)c1nc(-n2cccn2)nc(N)c1Br [Example 13, 5-bromo-N^4,N^4-dimethyl-2-(1H-pyrazol-1-yl)pyrimidine-4,6-diamine]	35
Nc1nc(-n2cccn2)nc(OCC(F)(F)F)c1Br [Example 44, 6-(2,2,2-trifluoroethoxy)-5-bromo-2-(1H-pyrazol-1-yl)pyrimidin-4-amine]	14
Nc1nc(-n2cccn2)nc(N2CCCCC2)c1Br [Example 5, 5-bromo-6-(piperidin-1-yl)-2-(1H-pyrazol-1-yl)pyrimidin-4-amine]	14
CCSc1nc(-n2cccn2)nc(N)c1Br [Example 36, 5-bromo-6-(ethylthio)-2-(1H-pyrazol-1-yl)pyrimidin-4-amine]	8
COC[C@H]1CCCN1c1nc(-n2cccn2)nc(N)c1Br [Example 20, 5-bromo-6-((R)-2-(methoxymethyl)pyrrolidin-1-yl)-2-(1H-pyrazol-1-yl)pyrimidin-4-amine]	14
Nc1nc(-n2cccn2)nc(NC2CCCC2)c1Br [Example 4, 5-bromo-N^4-cyclopentyl-2-(1H-pyrazol-1-yl)pyrimidine-4,6-diamine]	6
Nc1nc(-n2cccn2)nc(NC2CC2)c1Br [Example 8, 5-bromo-N^4-cyclopropyl-2-(1H-pyrazol-1-yl)pyrimidine-4,6-diamine]	18
Nc1nc(-n2cccn2)nc(NCC2CC2)c1Br [Example 29, 5-bromo-N^4-(cyclopropylmethyl)-2-(1H-pyrazol-1-yl)pyrimidine-4,6-diamine]	10
Nc1nc(-n2cccn2)nc(N2CCC2)c1Br [Example 9, 6-(azetidin-1-yl)-5-bromo-2-(1H-pyrazol-1-yl)pyrimidin-4-amine]	33

Continued by falling Ki, values first:

Ki [nM]	SMILES
21	Nc1nc(-n2cccn2)nc(NC2CCC2)c1Br [Example 10, 5-bromo-N^4-cyclobutyl-2-(1H-pyrazol-1-yl)pyrimidine-4,6-diamine]
17	Nc1nc(-n2cccn2)nc(-n2cccn2)c1Cl [Example 46, 5-chloro-2,6-di-(1H-pyrazol-1-yl)pyrimidine-4-amine]
16	CNc1nc(-n2cccn2)nc(N)c1Br [Example 24, 5-bromo-N^4-methyl-2-(1H-pyrazol-1-yl)pyrimidine-4,6-diamine]
11	Nc1nc(-n2cccn2)nc(N2CCCC2)c1Br [Example 3, 5-bromo-2-(1H-pyrazol-1-yl)-6-(pyrrolidin-1-yl)pyrimidin-4-amine]
7	CC(C)Sc1nc(-n2cccn2)nc(N)c1Br [Example 38, 5-bromo-6-(isopropylthio)-2-(1H-pyrazol-1-yl)pyrimidin-4-amine]
7	N#Cc1c(N)nc(-n2cccn2)nc1-n1cccn1 [Example 48, 4-amino-2,6-di-(1H-pyrazol-1-yl)pyrimidine-5-carbonitrile]
1	Nc1nc(-c2nccs2)nc(-c2nccs2)c1Br [Example 93, 5-Bromo-2,6-di(thiazol-2-yl)pyrimidin-4-amine]

molecular target: A2a adenosine receptor (Homo sapiens (Human), UniProt P29274); assay: Cyclic adenosine monophosphate (cAMP) production measurement in CHO-A2A cells; format: cell-based; settings: 1 μM NECA, 30 μM rolipram, cAMP enzymeimmunoassay
Sequence (P29274 whole entry): as above
Description: as §1
These assays were performed at adenosine receptors transfected using a cAMP enzymeimmunoassay kit (Amersham Biosciences). CHO-A2A cells were seeded (10000 cells/well) in 96-well culture plates and incubated at 37° C. in an atmosphere with 5% CO2 in Dulbecco's Modified Eagle's Medium Nutrient Mixture F-12 (DMEM F-12), containing 10% Foetal Calf Serum (FCS) and 1% L-Glutamine. Cells were washed 3× with 200 μl assay medium (DMEM-F12 and 25 mM HEPES pH=7.4) and pre-incubated with assay medium containing 30 μM rolipram and test compounds at 37° C. for 15 min. 1 μM NECA was incubated for 15 min at 37° C. (total incubation time 30 min). Reaction was stopped with lysis buffer supplied in the kit and the enzymeimmunoassay was carried out for detection of intracellular cAMP at 450 nm in an Ultra Evolution detector (Tecan). Data were fitted by non-linear regression using GraphPad Prism v2.01 (GraphPad Software).

Ki [nM]	SMILES
50	CN(C)c1nc(-n2cccn2)nc(N)c1Br [Example 13, 5-bromo-N^4,N^4-dimethyl-2-(1H-pyrazol-1-yl)pyrimidine-4,6-diamine]
60	Nc1nc(-n2cccn2)nc(NC2CC2)c1Br [Example 8, 5-bromo-N^4-cyclopropyl-2-(1H-pyrazol-1-yl)pyrimidine-4,6-diamine]
12	Nc1nc(-c2nccs2)nc(-c2nccs2)c1Br [Example 93, 5-Bromo-2,6-di(thiazol-2-yl)pyrimidin-4-amine]
